Values joined by “and” are separate entries in the source; they are usually repeats but may differ in a detail not shown here. Identical values can stand only once.
Legend:
[1] = tested on: MLL-AF9-induced AML leukemia; experiment: Syngeneic MLL-AF9 induced AML leukemia survival model; assay type: in vivo, mice; conditions: 40 mg/kg BID 10 days with cytarabine/DOX
Experimental: The impact of a compound of Formula (I) when administered adjunctively with cytarabine/DOX chemotherapy was evaluated in the syngeneic MLL-AF9 induced AML leukemia model.
Bone marrow from mice bearing MLL-AF9-inducted leukemia was harvested and enriched for kit+ cells and frozen in aliquots for subsequent transplant. Recipient mice were then injected with 3×10^4 leukemic cells 2 days after conditioning (Study day 0). Six days after leukemic injection, mice were randomized into 3 groups (n=8/group): a group administered a compound of Formula (I) at 40 mg/kg BID (i.e. 80 mg/kg per day) for 10 days, a group administered cytarabine/DOX (cytarabine at 100 mg/kg QD for 5 days, DOX at 1 mg/kg QD for 2 days), and a group administered a combined regimen of cytarabine/DOX/compound of Formula (I).

[2] = tested on: sE-selectin; experiment: Plasma soluble E-selectin ELISA during treatment; assay type: in vivo, human; conditions: individual subjects; for sE-selectin AUEC Day 3 / sE-selectin AUEC Day 8 / sE-selectin AUEC Percent Change from Day 1, Day 3 / sE-selectin AUEC Percent Change from Day 1, Day 8: with MEC
Experimental: Plasma sE-selectin was quantified using a commercially available sandwich format ELISA assay, in which a monoclonal antibody specific for sE-selectin has been pre-coated onto a microplate (Human sE-Selectin Platinum ELISA kit, eBioscience, cat. no. BMS205). Standards, samples and controls were pipetted into the wells of the microplate where they bind to the antibodies coated on the microplate. After a wash step, an HRP-conjugated anti-human sE-selectin antibody was added to the wells to bind the sE-selectin captured by the first antibody. After washing the plate wells to remove unbound HRP-conjugated anti-human sE-selectin antibody, a substrate solution reactive with HRP is added to the wells. Colored product formed in proportion to the amount of human sE-selectin present in the sample or standard. The color-producing reaction was stopped by addition of acid and absorbance of each well was measured at 450 nm. Six human serum samples from healthy donors served as the quality control samples. In addition, two control lyophilized plasma samples (high and low) included with the assay kit were also added to each run.
This response was seen both in mean levels and Area-Under-Effect-Curve (“AUEC”). Decrease from baseline to Day 8 (at the end of 6 days of treatment with a compound of Formula (I), given concurrently with MEC chemotherapy) was highly significant (P<0.0001) with no dose response. FIG. 11 illustrates decreasing mean levels of plasma soluble E-selectin over the treatment period in all dose groups, where doses were BID (i.e., the 5, 10, and 20 mg/kg “Per Dose” amounts of a compound of Formula (I) correspond to dosages of 10, 20, and 40 mg/kg per day, respectively).

[3] = tested on: acute myeloid leukemia (AML); experiment: Clinical outcomes, newly diagnosed older AML subjects, sodium salt infusion with 7+3; assay type: in vivo, human; conditions: newly diagnosed AML ≥60 y
Experimental: In this study, 25 human subjects who were newly diagnosed at age 60 or older with acute myeloid leukemia (AML) were selected for this study. Subjects were not disqualified for prior treatment or diagnosis for MDS or CMML.
Each subject received a total of 19 infusions of 10 mg/kg/dose of the compound of Formula (I), administered as the sodium salt, over 10 days with a nominal infusion duration of 20 minutes. The formulation for the infusion solution was as follows: […]
The first dose of a compound of Formula (I) was administered 24 hours±1 hour prior to the first dose of 7+3 (cytarabine and idarubicin) chemotherapy as a sentinel dose to evaluate the effect of the compound of Formula (I) alone (i.e., a single dose of 10 mg/kg the day before the first chemotherapy day). The compound of Formula (I) was then administered every 12 hours±1 hour on chemotherapy days (i.e., 20 mg/kg per day on chemotherapy days) and for two days following the last dose of chemotherapy. […] 7+3 (cytarabine and idarubicin) chemotherapy was administered on Days 2-8 comprising a continuous IV infusion of cytarabine 100 mg/m^2/d over seven days (168 hours, from days 2-8), and idarubicin 12 mg/m^2/d IV for the first three consecutive days ([…], from days 2-4).
The clinical outcome for each subject was assessed at the time of count recovery following completion of induction chemotherapy. Subjects were assigned to one of four response groups: complete remission (“CR”); complete remission with incomplete count recovery (“CRi”); morphologic leukemia-free state (“MLFS”); persistent disease (“PD”). Complete remission was defined as bone marrow blasts <5%; absence of circulating blasts and blasts with Auer rods; absence of extramedullary disease; ANC ≥1.0×10^9/L and platelets ≥100,000×10^9/L. Complete remission with incomplete recovery was defined as: all CR criteria except for residual neutropenia (<1.0×10^9/L) or thrombocytopenia (<100,000×10^9/L). Morphologic leukemia-free state was defined as: bone marrow blasts <5%; absence of blasts with Auer rods; absence of extramedullary disease; no hematologic recovery required. Persistent disease was defined as: bone marrow blasts >5%.

CC[C@@H]1CC(C(=O)NCCNC(=O)CCOCCOCCOCCOCCOCCOCCOCCOCCOCCOCCOCCOC)C[C@@H](O[C@@H]2O[C@@H](CO)[C@H](O)C(O[C@@H](CC3CCCCC3)C(=O)O)C2NC(C)=O)C1OC1O[C@@H](C)C(O)[C@H](O)[C@@H]1O (some centres unmarked) [compound of Formula (I)]
MST [1]: 41 days | increased lifespan [1]: 64% | sE-selectin AUEC Day 1 ([2]; 5 mg/kg per dose): 563.47 hrxng/mL and 1,605.18 hrxng/mL and 339.27 hrxng/mL and 328.40 hrxng/mL | sE-selectin AUEC Day 3 ([2]; 5 mg/kg per dose): 494.30 hrxng/mL and 1,445.26 hrxng/mL and 275.71 hrxng/mL and 332.11 hrxng/mL | sE-selectin AUEC Day 8 ([2]; 5 mg/kg per dose): 440.68 hrxng/mL and 728.47 hrxng/mL and 156.25 hrxng/mL and 161.11 hrxng/mL | sE-selectin AUEC Percent Change from Day 1, Day 3 ([2]; 5 mg/kg per dose): −12.28% and −9.96% and −18.74% and 1.13% | sE-selectin AUEC Percent Change from Day 1, Day 8 ([2]; 5 mg/kg per dose): −21.79% and −54.62% and −53.95% and −50.94% | sE-selectin AUEC Day 1 ([2]; 10 mg/kg per dose): 338.36 hrxng/mL and 707.63 hrxng/mL and 325.19 hrxng/mL and 269.90 hrxng/mL and 230.35 hrxng/mL | sE-selectin AUEC Day 3 ([2]; 10 mg/kg per dose): 313.04 hrxng/mL and 981.09 hrxng/mL and 298.31 hrxng/mL and 202.99 hrxng/mL and 185.98 hrxng/mL | sE-selectin AUEC Day 8 ([2]; 10 mg/kg per dose): 168.71 hrxng/mL and 218.03 hrxng/mL and 25.51 hrxng/mL and 103.74 hrxng/mL and 158.91 hrxng/mL | sE-selectin AUEC Percent Change from Day 1, Day 3 ([2]; 10 mg/kg per dose): −7.48% and 38.64% and −8.26% and −24.79% and −19.26% | sE-selectin AUEC Percent Change from Day 1, Day 8 ([2]; 10 mg/kg per dose): −50.14% and −69.19% and −92.15% and −61.57% and −31.01% | sE-selectin AUEC Day 1 ([2]; 20 mg/kg per dose): 2,206.19 hrxng/mL and 750.41 hrxng/mL and 202.19 hrxng/mL | sE-selectin AUEC Day 3 ([2]; 20 mg/kg per dose): 1,743.61 hrxng/mL and 632.82 hrxng/mL and 163.18 hrxng/mL | sE-selectin AUEC Day 8 ([2]; 20 mg/kg per dose): 956.57 hrxng/mL and 294.47 hrxng/mL and 31.49 hrxng/mL | sE-selectin AUEC Percent Change from Day 1, Day 3 ([2]; 20 mg/kg per dose): −20.97% and −15.67% and −19.30% | sE-selectin AUEC Percent Change from Day 1, Day 8 ([2]; 20 mg/kg per dose): −56.64% and −60.76% and −84.43% | one-year overall survival rate, all subjects [3]: 52% | one-year survival rate, MRD negative subjects [3]: 60% | severe oral mucositis rate [3]: 0% | median event-free survival ([3]; 95% CI 3-12.6): 9.2 months | median overall survival ([3]; 95% CI lower 9.9): 12.6 months | Oral Mucositis Events Grades 3/4 ([3]; N = 25): 0 n
